≈ marks a conversion by molar mass, not a printed value.
Key:
[1] = tested on: CXCL1/KC; assay: Acne model in mice: CXCL1 level in left ear tissue; assay type: in vivo, Balb/C mice
Method: (§1) Experimental strain: Propionibacterium acnes ATCC 6919 (Beijing Biobw Biotechnology Co., Ltd.) Experimental animals: Balb/C mice (Zhejiang Vital River Laboratory Animal Technology Co., Ltd.) Balb/C mice were grouped and numbered, and adaptively fed for one week. On the day of modeling, Propionibacterium acnes was taken, and OD600 was measured using a microplate reader. BH1 culture medium was diluted to OD600=1 (about 5×10^8 CFU/mL), centrifuged to discard supernatant, and the remaining culture was diluted to 1×10^8 CFU/mL with PBS. Once the molding began, the mice were anesthetized with a small animal anesthesia machine, the air flow and isoflurane content of the anesthesia machine were adjusted, and the mice were placed in an anesthesia induction chamber for anesthesia induction. […] Mouse BCA protein detection: after Propionibacterium acnes was injected for 48 hours, the BCA protein detection was detected by using the BCA protein concentration assay kit. The left ear of mouse was homogenized with 1 mL of PBS and the dilution factor equivalent to a mass volume ratio of 1:9 was calculated, then centrifuged at 1500 g for 10 minutes. […] […] was measured with a microplate reader, the standard curves were plotted, and the BCA concentrations were calculated. […]

[2] = tested on: Propionibacterium acnes ATCC 11827; assay: Minimum inhibitory concentration (MIC) assay, Propionibacterium acnes ATCC 11827; assay type: cell-based; conditions: Cutibacterium acnes, ATCC11827; anaerobic culture 35+/-2°C, 48 hours; read with naked eyes
Method: On the day of the experiment, the compound in the flask was dissolved in 100% DMSO until the concentration of mother liquor was 0.4 mg/mL. If the mother liquor was not used on the same day, it was stored at −80° C. for future use. The compound mother liquor and standard antibiotics were subjected to 2-fold gradient dilution with corresponding solvents on a 96-microwell plate (V-bottom) to obtain 100× working solutions (Well 1 to Well 7) in sequence. Among them, the concentrations of the compound were 400 μg/mL, 200 μg/mL, 100 μg/mL, 50 μg/mL, 25 μg/mL, 12.5 μg/mL, 6.25 μg/mL, and 3.125 μg/mL. 100% DMSO was used as growth control (Well 8). As such, the compound motherplate was obtained. Two days before the experiment, anaerobic bacteria (Propionibacterium acnes) stored in a cryogenic tube at −80° C. were scribed on an MBA (Brucella Agar+5% (v/v) defibrillated sheep blood+[…] Hemin+1 μg/mLVitamin K1) plate. The anaerobic bacteria were placed in a 35+/−2° C. anaerobic incubator for 42-48 hours of cultivation. On the day of the experiment, the plate was taken out, clones were picked from the plate and suspended in physiological saline. Then, the turbidity of the bacterial suspension (containing 1.0-2.0×10^8 CFU/mL) was adjusted to OD600=0.2 by a turbidity meter. Then, the adjusted bacterial suspension was diluted to an appropriate concentration with the assay culture medium: about 5×10^5 CFU/mL for aerobic bacteria, and about 1×10^6 CFU/mL for anaerobic bacteria. As such, the inoculating solution was obtained. […] Therefore, the final assay concentrations of the compound were 4 μg/mL, 2 μg/mL, 1 μg/mL, 0.5 μg/mL, 0.25 μg/mL, 0.125 μg/mL, 0.06 μg/mL and 0.03 μg/mL. The total volume of each well on the assay plate was 200 μL: containing 1% DMSO, about 5×10^5 CFU/mL of aerobic bacteria and about 1×10^6 CFU/mL of anaerobic bacteria. All assay plates for aerobic bacteria were aerobically cultured at 35+/−2° C. for 16 to 20 hours, and all assay plates for anaerobic bacteria were anaerobically cultured in an anaerobic incubator at 35+/−2° C. for 48 hours. Note: for anaerobic bacteria, both the preparation of bacterial solution in step 2 and the inoculation of bacterial solution in step 3 were operated in an anaerobic workstation.

[3] = tested on: IL-6; assay: Acne model in mice: IL-6 level in left ear tissue; assay type: in vivo, Balb/C mice
Method: as §1

[4] = Balb/C mice, left ear homogenate, 48 hours after injection of Propionibacterium acnes, 15 μL applied at 4, 20, 28, 44 hours, drugs as hydrochloride
[5] = compared with acne model group, p<0.001, in words

SMILES: CN(C)c1cc2c(cn1)-c1ccc3c(=O)c(C(=O)O)cn(C4CC4)c3c1COC2 [Compound 6]
- CXCL1 Mean ± SD [1, 4]: 191.5 ± 32.71 pg/mg
- CXCL1 content in the left ear tissues of mice after treatment [1, 5]: significantly reduced
- MIC [2]: 0.03 µg/mL (≈ 0.0766 µM)
- IL-6 Mean ± SD [3, 4]: 322.4 ± 43.33 pg/mg
- IL-6 content in the left ear tissues of mice after treatment [3, 5]: significantly reduced

Reference: patent US20250042912A1, “NOVEL NON-FLUORINATED QUINOLONE COMPOUND AND USE THEREOF” (priority 2021, published 2025)
